{
  "source": "patent US20260035668A1",
  "about": "“ORGANOID CULTURE COMPOSITION FOR INDUCING RESERVE STEM CELLS AND CULTURE METHOD USING SAME” (KOREA UNIVERSITY RESEARCH AND BUSINESS FOUNDATION, priority 2022, published 2026)",
  "type_in_all_cases": "cell-based, C57Bl/6 mice",
  "key": {"[1]": {"system": "small intestine-derived organoids", "experiment": "Radiation resistance: formation of small intestinal crypts after X-ray irradiation", "conditions": "FIG. 2", "method": "In order to confirm the radiation resistance of reserve stem cell-derived organoids prepared in Example 1, the formation of small intestinal crypts and the expression of a cell proliferation marker Ki-67 were confirmed after radiation expose. Specifically, 3 μM CHIR99021 and 1 mM Valproic acid were added to advanced DMEM F/12 medium supplemented with HEPES, glutamax, N-acetylcysteine, N2, B-27, R-spodin, noggin, and EGF. Thereafter, the organoids prepared in Example 1-1 were inoculated and cultured for 6 days, and then cultured for 3 days each under the conditions shown in the table below. [table] Then, the organoids cultured under each culture condition were irradiated once with 6 Gy of X-ray using a radiation irradiator (rs-320), and the formation of small intestinal crypts was confirmed after 72 hours."}, "[2]": {"system": "small intestinal organoids", "experiment": "Differentiation potential: Dclk1 (tuft cells) and UEA-1 (goblet cells) immunofluorescence", "conditions": "culture medium comprising SAG vs control group not comprising SAG; FIG. 4", "method": "Subsequently, 10 μM Y-27632 was added to the medium, and the organoids prepared in Example 1-1 were inoculated and cultured for 3 days. Then, 3 μM CHIR99021 (Sigma-Aldrich, Cat. No SML1046-5 MG) and 1 mM valproic acid (Sigma-Aldrich, Cat. No P4543-10G) were added and incubated for 4 days at 37° C. in a 5% CO2 incubator, followed by treatment with 1 μM SAG (Abcam, Cat. No ab142160) and incubation to culture the reserve stem cell-induced organoids.\n(§1) Specifically, the organoids were fixed with 4% PFA, and 0.1% Triton X-100 in PBS was used to increase a permeability of the organoids. Subsequently, 3% BSA and 0.1% Triton X-100 were placed in a solution diluted in PBS for 1 hour to block a membrane of the organoids, and incubated with primary antibodies (anti-hTERT (ab32020, abcam), anti-Ki67 (ab16667, abcam), anti-Green Fluorescent Protein (GFP-1020, aveslabs), anti-Dclk1 (ab31704, abcam), anti-UEA 1 (RL-1062-2, Vector Laboratories)) at 4° C. for 1 day. After washing with PBS three times for 10 minutes at room temperature, incubation was performed with fluorescent secondary antibodies corresponding to each primary antibody for 2 hours. After washing gain with PBS three times for 10 minutes at room temperature, the organoid nuclei were stained with 4′, 6-diamidino-2-phenylindole, dihydrochloride (DAPI) for 5 minutes at room temperature. […]"}, "[3]": {"system": "small intestine-derived organoids", "experiment": "Immunofluorescence of reserve stem cell marker TERT in SAG-treated organoids", "conditions": "1 μM SAG after 3 μM CHIR99021 + 1 mM valproic acid; over time after incubation; FIG. 1", "method": "To prepare small intestine-derived organoids, small intestine tissue was isolated from 4 to 8 week-old C57Bl/6 mice and perfused with PBS. The tissue was cut into pieces of 2 to 4 mm in size, placed in PBS, and washed clearly about 10 times. Then, the tissue was placed in PBS containing 200 mM EDTA, and incubated at 4° C. for 1 hour with shaking. Thereafter, the cells detached from the tissue were passed through a 70 um cell strainer, and centrifuged at 200 g. Organoids were prepared by mixing Matrigel in a 1:1 volume ratio with a culture medium containing settled small intestinal crypts and then performing three-dimensional culture.\nThe medium was prepared by adding a 10 mM HEPES buffer, 1X glutamax, 1 mM N-acetylcysteine, 1 volume of N2, 2 volumes of B-27, 20 volumes of RSPO (R-spodin), 10 volumes of noggin per 100 volumes of total medium, and 50 ng/ml of EGF to advanced DMEM F/12 medium (Gibco™, Cat. No 12634010) as a basic medium for small intestine organoids.\nSubsequently, 10 μM Y-27632 was added to the medium, and the organoids prepared in Example 1-1 were inoculated and cultured for 3 days. […]"}, "[4]": {"system": "small intestine-derived organoids", "experiment": "Expression of cell proliferation marker Ki-67 by immunofluorescence", "conditions": "1 μM SAG culture medium; 0, 24 and 48 hours after completion of culture; vs control group; FIG. 3", "method": "as §1, with “temperature. In order to confirm the radiation resistance of reserve stem cell-derived organoids prepared in Example 1, the formation of small intestinal crypts and the expression of a cell proliferation marker Ki-67 were confirmed after radiation expose. Specifically, 3 μM CHIR99021 and 1 mM Valproic acid were added to advanced DMEM F/12 medium supplemented with HEPES, glutamax, N-acetylcysteine, N2, B-27, R-spodin, noggin, and EGF.” for “temperature.”"}},
  "note": "“Also recorded” adds a separate entry of the source.",
  "data": [
    {"smiles": "CNC1CCC(N(Cc2cccc(-c3ccncc3)c2)C(=O)c2sc3ccccc3c2Cl)CC1", "note": "(stereo not drawn) [SAG, smoothened receptor agonist (SAG)]", "values": [
      {"measurement": "formation of small intestinal crypts", "setting": "[1]; 1 μM SAG + 3 μM CHIR99021 + 1 mM valproic acid, 3 days, 6 Gy X-ray once, after 72 hours, vs control groups 1 and 2", "result": "significantly better formation of small intestinal crypts compared to the other control groups"},
      {"measurement": "radiation resistance", "setting": "[1]; 1 μM SAG, 6 Gy X-ray, vs control groups", "result": "had resistance to radiation; also recorded: significantly higher radiation resistance than the other control groups"},
      {"measurement": "Dclk1 (tuft cells) marker", "setting": "[2]", "result": "significantly increased compared to the control group"},
      {"measurement": "UEA-1 (goblet cells) marker", "setting": "[2]", "result": "significantly increased compared to the control group"},
      {"measurement": "activity of TERT (reserve stem cell marker)", "setting": "[3]", "result": "significantly increased over time"},
      {"measurement": "expression of cell proliferation marker Ki-67", "setting": "[4]", "result": "expressed at a significantly higher level than a control group at each time point"}
    ]}
  ]
}
